The values that follow come from US7732451B2, “Naphthalene-containing melanocortin receptor-specific small molecule” (Palatin Technologies, Inc., priority 2002, dated 2010).

One assay addresses T1, hMC3-R (Homo sapiens, UniProt P41968).
T1 construct: expressed in transfected cells
Kind of assay: competitive inhibition binding assay, 125I-NDP-α-MSH, membranes. The following applies: for inhibition at 1 µM: 1 μM compound, average of triplicates, read-out: Inhibition at 1 μM MC3-R; for Ki: read-out: Ki (nM) MC3-R. On the procedure:
(§1) A competitive inhibition binding assay was conducted using membranes prepared from hMC3-R, hMC4-R, hMC5-R, and B-16 mouse melanoma cells (containing MC1-R) using 0.4 nM ^125I-NDP-α-MSH (New England Nuclear, Boston, Mass., USA) in 50 mM HEPES buffer containing 1 mM MgCl2, 2 mM CaCl2, and 5 mM KCl, at pH 7.2. The assay tube also contained a chosen concentration of the test compound of this invention, for determining its efficacy in inhibiting the binding of ^125I-NDP-α-MSH to its receptor.
(§2) Incubation was for 90 minutes at room temperature, after which the assay mixture was filtered and the membranes washed three times with ice cold buffer. The filter was dried and counted in a gamma counter for remaining radioactivity bound to the membranes. 100% specific binding was defined as the difference in radioactivity (cpm) bound to cell membranes in the absence and presence of 1 μM α-MSH. […] Each assay was conducted in triplicate and the actual mean values are described. The Ki (nM) of certain compounds of the invention were determined.

Another assay concerns the target T2, hMC4-R (Homo sapiens, UniProt P32245).
T2 construct: expressed in transfected cells
Described as above. The following applies: for inhibition at 1 µM: 1 μM compound, average of triplicates, read-out: Inhibition at 1 μM MC4-R; for Ki: read-out: Ki (nM) MC4-R. On the procedure: as §1, §2

For another assay, the target named is T3, hMC5-R (Homo sapiens, UniProt P33032).
T3 construct: expressed in transfected cells
The assay is described as above. The conditions noted are these: for inhibition at 1 µM: 1 μM compound, average of triplicates, read-out: Inhibition at 1 μM MC5-R; for Ki: read-out: Ki (nM) MC5-R. The procedure:
as §1, §2

Assay [1] in a line: ICV feeding studies, change in food intake and body weight. The conditions noted are these: 1 nmol, male Sprague-Dawley rats; for change in weight: 24 hour. The class given is in vivo, rat. The procedure: Change in food intake and body weight was evaluated for selected compounds. Male Sprague-Dawley rats weighing ˜300 g at the beginning of the experiment were kept on a 12 hour on/off light cycle. Lights out was adjusted to 12:00 p.m. to allow for dosing just prior to the start of their dark period. Rats (8-12/group) were fed powdered chow and water ad libitum. For 1 week before treatment, 24-hour food intake and body weight change was recorded to assess a baseline for the group during vehicle treatment. The rats were dosed ICV with vehicle or selected compounds (1-3 nmol). The changes in body weight and food intake for the 24 hour period after dosing were determined. The changes in body weight and food intake for the 48 hour period, and in same cases for 72 hours as well, after dosing were also measured to determined reversal of changes in body weight and food intake effect back to baseline.

Assay [2] concerns the target T4, MC1-R (B-16 mouse melanoma cells) (Mus musculus, UniProt Q01727).
T4 construct: B-16 mouse melanoma cells (containing MC1-R); endogenous in cells; host or cells: B-16 mouse melanoma cells
In words: competitive inhibition binding assay, 125I-NDP-α-MSH, membranes. The following applies: for inhibition at 1 µM: 1 μM compound, average of triplicates, results less than 0% reported as 0%; for Ki: read-out: Ki (nM) MC1-R. On the procedure:
as §1, §2

The target in assay [3] is T5, MC4-R (HEK-293 cells expressing MC4-R) (Homo sapiens, UniProt P32245).
T5 construct: expressed in transfected cells; host or cells: HEK-293
Kind of assay: cAMP assay for agonist/antagonist status. It is filed as cell-based. The following applies: antagonism = inhibition of α-MSH-induced cAMP. On the procedure: Functional evaluation of compounds at melanocortin receptors was performed by measuring the accumulation of intracellular cAMP in HEK-293 cells expressing MC3-R, MC4-R or MC5-R, and in B-16 mouse melanoma cells (containing MC1-R). Cells, suspended in Earle's Balanced Salt Solution containing 10 mM HEPES, pH 7.5, 5 mM MgCl2, 1 mM glutamine, 0.1% albumin and 0.6 mM 3-isobutyl-1-methyl-xanthine, a phosphodiesterase inhibitor, were plated in 96 well plates at a density of 0.5×10^5 cells per well. Cells were incubated with the test compounds in the presence or absence of α-MSH for 1 hour at 37° C. cAMP levels were measured by EIA (Amersham) in the cell lysates. Data analysis and EC50 values were determined using nonlinear regression analysis with Prism Graph-Pad software.
The agonist/antagonist status with respect to MC4-R of certain compounds of the invention was determined. Antagonistic activity was determined by measuring the inhibition of α-MSH-induced cAMP levels following exposure to the compounds as in Example 2.
On the technique in general: cAMP levels reflect the balance of adenylyl cyclase and phosphodiesterase activity.

T3 sequence (P33032 whole entry): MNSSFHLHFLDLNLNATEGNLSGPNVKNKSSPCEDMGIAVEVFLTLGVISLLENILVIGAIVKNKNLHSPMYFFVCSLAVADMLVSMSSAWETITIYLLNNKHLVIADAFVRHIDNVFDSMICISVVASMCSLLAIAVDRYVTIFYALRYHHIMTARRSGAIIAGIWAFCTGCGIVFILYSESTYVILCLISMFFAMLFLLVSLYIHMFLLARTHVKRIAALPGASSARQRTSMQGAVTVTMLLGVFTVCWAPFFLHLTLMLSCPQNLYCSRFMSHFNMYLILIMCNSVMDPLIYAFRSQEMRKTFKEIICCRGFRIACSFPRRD
T4 sequence (Q01727 whole entry): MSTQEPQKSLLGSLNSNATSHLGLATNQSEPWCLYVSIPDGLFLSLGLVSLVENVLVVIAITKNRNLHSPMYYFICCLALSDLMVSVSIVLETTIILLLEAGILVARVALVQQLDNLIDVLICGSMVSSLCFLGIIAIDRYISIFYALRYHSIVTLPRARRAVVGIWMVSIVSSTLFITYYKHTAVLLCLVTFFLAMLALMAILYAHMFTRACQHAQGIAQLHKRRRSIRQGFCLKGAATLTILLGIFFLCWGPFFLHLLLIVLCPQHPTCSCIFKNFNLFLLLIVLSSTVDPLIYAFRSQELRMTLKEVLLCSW
T2 sequence (P32245 whole entry): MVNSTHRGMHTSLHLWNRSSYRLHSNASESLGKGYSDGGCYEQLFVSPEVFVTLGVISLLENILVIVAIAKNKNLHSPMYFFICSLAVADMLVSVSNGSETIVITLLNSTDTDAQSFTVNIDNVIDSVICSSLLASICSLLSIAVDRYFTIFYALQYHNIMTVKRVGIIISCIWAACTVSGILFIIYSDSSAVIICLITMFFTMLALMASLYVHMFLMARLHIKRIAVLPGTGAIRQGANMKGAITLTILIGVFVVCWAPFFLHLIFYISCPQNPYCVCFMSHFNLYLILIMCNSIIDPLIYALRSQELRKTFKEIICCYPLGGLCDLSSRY
T5 sequence (P32245 whole entry): as above
T1 sequence (P41968 whole entry): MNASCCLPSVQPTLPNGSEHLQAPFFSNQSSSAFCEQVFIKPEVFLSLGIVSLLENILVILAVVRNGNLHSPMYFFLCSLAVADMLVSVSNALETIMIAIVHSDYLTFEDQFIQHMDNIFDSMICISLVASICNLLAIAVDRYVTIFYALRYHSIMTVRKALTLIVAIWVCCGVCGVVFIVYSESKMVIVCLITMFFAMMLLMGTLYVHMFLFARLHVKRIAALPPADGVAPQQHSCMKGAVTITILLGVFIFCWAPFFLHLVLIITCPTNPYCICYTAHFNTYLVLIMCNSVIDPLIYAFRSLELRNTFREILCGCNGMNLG

Broadly, the inhibition is the share of the control response that was lost under treatment. `NCCCC[C@H]1C(=O)N(CCc2ccc3ccccc3c2)CCN1C(=O)[C@@H](Cc1ccc(Cl)cc1Cl)NC(=O)[C@@H]1CC[C@H](c2ccccc2)N1` [Example 7]: the inhibition at 1 µM came out at 18% on hMC3-R, 92% at hMC4-R and 51% at hMC5-R. For the same compound, in assay [1], the “24 hour change in food intake” value is -7.77 g. Further, in assay [1], the change in weight was -5.88 g.

By Ki is commonly meant a dissociation constant, usually derived from enzyme kinetics or from competition with a known ligand. As for `C[C@@H]1CN(C(=O)[C@H](N)Cc2ccc(Cl)cc2Cl)[C@@H](CCCNC(=N)N)CN1CCc1ccc2ccccc2c1` [Example 11, N-{3-[1-[2(R)-Amino-3-(2,4-dichloro-phenyl)-propionyl]-5(R)-methyl-4-(2 naphthalen-2-yl-ethyl)-piperazin-2(S)-yl]-propyl}-guanidine], the inhibition at 1 µM in assay [2] was 44%; at hMC3-R, 82%; on hMC4-R, 100%; at hMC5-R, 78%. In addition, the Ki in assay [2] came out at 1130 nM; at hMC3-R it was 95 nM; on hMC4-R, 2 nM; on hMC5-R, 362 nM. Also, in assay [3], the “agonist/antagonist status as to MC4-R” value was “antagonist”. Besides, the “24 hour change in food intake” value in assay [1] is -2.6 g. The same compound came in with a change in weight in assay [1] of -0.3 g.

Regarding `Cc1ccc(C[C@@H](N)C(=O)N2C[C@@H](C)N(CCc3ccc4ccccc4c3)C[C@@H]2CCCNC(=N)N)c(Cl)c1` [Example 13, N-{3-[1-[2(R)-Amino-3-(2-chloro-4-methyl-phenyl)-propionyl]-5(R)-methyl-4-(2-naphthalen-2-yl-ethyl)-piperazin-2(S)-yl]-propyl}-guanidine], the inhibition at 1 µM in assay [2] was found to be 37%; on hMC3-R, 73%; at hMC4-R it was 100%; at hMC5-R, 72%. In addition, the Ki amounted to 907 nM in assay [2], 227 nM at hMC3-R, 5 nM at hMC4-R and 527 nM at hMC5-R. Further, in assay [3], the “agonist/antagonist status as to MC4-R” value is recorded as “antagonist”. The “24 hour change in food intake” value in assay [1] is -1.6 g. Also, the change in weight in assay [1] was -3.9 g.

On to `Cc1cc(Cl)ccc1C[C@@H](N)C(=O)N1C[C@@H](C)N(CCc2ccc3ccccc3c2)C[C@@H]1CCCNC(=N)N` [Example 14, N-{3-[1-[2(R)-Amino-3-(4-chloro-2-methyl-phenyl)-propionyl]-5(R)-methyl-4-(2-naphthalen-2-yl-ethyl)-piperazin-2(S)-yl]-propyl}-guanidine], for which the inhibition at 1 µM in assay [2] was 23%; on hMC3-R it was 83%; at hMC4-R, 100%; on hMC5-R, 82%. Further, the Ki stood at 1050 nM in assay [2], 99 nM at hMC3-R, 1 nM at hMC4-R and 219 nM on hMC5-R. The “agonist/antagonist status as to MC4-R” value in assay [3] is “partial agonist”. The “24 hour change in food intake” value in assay [1] is -5.5 g. Moreover, the change in weight result in assay [1] is listed as “no change”.

Turning to `C[C@@H]1CN(CCc2ccc3ccccc3c2)C[C@H](CCCNC(=N)N)N1C(=O)[C@H](N)Cc1ccc(Cl)cc1Cl` [Example 17 (R)-CH3, N-{3-[1-[2(R)-Amino-3-(2,4-dichloro-phenyl)-propionyl]-6(R)-methyl-4-(2-naphthalen-2-yl-ethyl)-piperazin-2(S)-yl]-propyl}-guanidine], the inhibition at 1 µM in assay [2] was determined as 14%; on hMC3-R, 32%; at hMC4-R it was 95%; on hMC5-R, 36%.

With `N=C(N)NCCC[C@H]1CN(CCOc2ccc3ccccc3c2)CCN1C(=O)[C@@H](N)Cc1ccc(Cl)cc1Cl` [Example 18], the inhibition at 1 µM in assay [2] was found to be 25%; on hMC3-R, 33%; at hMC4-R it was 91%; at hMC5-R it was 40%.
